Details of series [1]: species or system human. To be noted: prediction for high-clearance drugs, not studied here.
A short description of series [2]: Integrated population pharmacokinetic model. The series is classed as in vivo, human. Particulars: for PNA on Cl: increase of clearance per hour of postnatal age, first 5 days of life; for Decrease of clearance during TH compared with normothermia: 33.5°C vs 36.5°C; for TEMP on Cl: reduction of clearance per °C of body temperature below 36.5°C.
[3] abbreviates: interindividual variability in clearance, common eta.

Molecules are shown by their SMILES.

Consider `N=C1N[C@H]2[C@H](CS[C@H]2CCCCC(=O)O)N1` [2‐iminobiotin], for which the “Expected change of clearance with PNA” value in series [1] is on record as “The same prediction can be made”.

With `CC1(C)S[C@@H]2[C@H](NC(=O)[C@H](N)c3ccc(O)cc3)C(=O)N2[C@H]1C(=O)O` [Amoxicillin, amoxicillin], in series [2], the “PNA on Cl” value is 1.23 %/h.

For the compound `CC1(C)S[C@@H]2[C@H](NC(=O)Cc3ccccc3)C(=O)N2[C@H]1C(=O)O` [Benzylpenicillin, benzylpenicillin], the “PNA on Cl” value in series [2] is reported as 1.23 %/h. In addition, in series [2] (setting [3]), the “Correlation in clearance with Amoxicillin” value is recorded as 35.5%, the “Correlation in clearance with HMG” value came out at 52.8%, the “Correlation in clearance with M6G” value was 27.4% and the “Correlation in clearance with Midazolam” value stood at 52.8%. Moreover, in series [2] (setting [3]), the “Correlation in clearance with Morphine” value amounted to 58.6% and the “Correlation in clearance with OHM” value is reported as 53.4%.

On to `CNC(C)C1CCC(N)C(OC2C(N)CC(N)C(OC3OCC(C)(O)C(NC)C3O)C2O)O1` (stereo not shown) [Gentamicin, gentamicin], for which, in series [2], the “PNA on Cl” value came to 1.23 %/h. Also, in series [2] (setting [3]), the “Correlation in clearance with Amoxicillin” value was 27.9%, the “Correlation in clearance with Benzylpenicillin” value is 38.8%, the “Correlation in clearance with HMG” value was found to be 41.4% and the “Correlation in clearance with M3G” value turned out to be 23.4%. Besides, in series [2] (setting [3]), the “Correlation in clearance with M6G” value was found to be 21.5%, the “Correlation in clearance with Midazolam” value was found to be 41.4%, the “Correlation in clearance with Morphine” value came out at 45.9% and the “Correlation in clearance with OHM” value is reported as 41.8%.

In the case of `O=C(O)[C@H]1O[C@@H](OCc2ncc3n2-c2ccc(Cl)cc2C(c2ccccc2F)=NC3)[C@H](O)[C@@H](O)[C@@H]1O` [HMG, hydroxymidazolam glucuronide], in series [2], the “PNA on Cl” value is on record as 1.23 %/h. Further, in series [2] (setting [3]), the “Correlation in clearance with M3G” value is 31.9%, the “Correlation in clearance with M6G” value is reported as 29.3%, the “Correlation in clearance with Midazolam” value turned out to be 56.4% and the “Correlation in clearance with Morphine” value is reported as 62.6%. For the same compound, the “Correlation in clearance with OHM” value in series [2] (setting [3]) is reported as 57.0%.

Consider `CN1CC[C@]23c4c5ccc(O[C@@H]6O[C@H](C(=O)O)[C@@H](O)[C@H](O)[C@H]6O)c4O[C@H]2[C@@H](O)C=C[C@H]3[C@H]1C5` [M3G, morphine‐3‐glucuronide], for which the “PNA on Cl” value in series [2] was determined as 1.23 %/h. In series [2] (setting [3]), the “Correlation in clearance with Midazolam” value amounted to 31.9%, the “Correlation in clearance with Morphine” value is reported as 35.4% and the “Correlation in clearance with OHM” value came to 32.2%.

For `CN1CC[C@]23c4c5ccc(O)c4O[C@H]2[C@@H](O[C@@H]2O[C@H](C(=O)O)[C@@H](O)[C@H](O)[C@H]2O)C=C[C@H]3[C@H]1C5` [M6G, morphine‐6‐glucuronide], the “PNA on Cl” value in series [2] was 1.23 %/h. Besides, in series [2] (setting [3]), the “Correlation in clearance with M3G” value amounted to 94.8%, the “Correlation in clearance with Midazolam” value was found to be 29.3%, the “Correlation in clearance with Morphine” value is recorded as 32.5% and the “Correlation in clearance with OHM” value is recorded as 29.6%.

`CCNCC(=O)Nc1c(C)cccc1C` [MEGX, monoethylglycinexylidide]: the “PNA on Cl” value in series [2] is listed as 1.23 %/h.

For the compound `Cc1ncc2n1-c1ccc(Cl)cc1C(c1ccccc1F)=NC2` [Midazolam, midazolam], in series [2], the “Decrease of clearance during TH compared with normothermia” value was 20.5%, the “PNA on Cl” value is recorded as 0.540 %/h and the “TEMP on Cl” value worked out at 6.83 %/°C. In addition, the “Correlation in clearance with Morphine” value in series [2] (setting [3]) turned out to be 62.2%.

For the compound `OCc1ncc2n1-c1ccc(Cl)cc1C(c1ccccc1F)=NC2` [OHM, 1‐hydroxymidazolam], in series [2], the “Decrease of clearance during TH compared with normothermia” value came to 20.5%, the “PNA on Cl” value amounted to 0.540 %/h and the “TEMP on Cl” value came to 6.83 %/°C. In series [2] (setting [3]), the “Correlation in clearance with Midazolam” value came out at 57.0% and the “Correlation in clearance with Morphine” value is given as 63.3%.

For `CCC1(c2ccccc2)C(=O)NC(=O)NC1=O` [Phenobarbital, phenobarbital], the “PNA as covariate on clearance (in words)” value in series [2] (recovery of organ function) was “No effect of PNA was identified”.

Turning to `Oc1ncnc2[nH]ncc12` [allopurinol], the “Expected change of clearance with PNA” value in series [1] was “The same prediction can be made”.

`CC[C@@H](C(N)=O)N1CCCC1=O` [levetiracetam]: the “Expected change of clearance with PNA” value in series [1] is on record as “clearance increases strongly with PNA”.

The values above are taken from PMC7689752 (Clinical Pharmacology and Therapeutics, 2020).
